The source of these data is patent US12708659B2, “Polyphenolic insulin” (KIMBALL WESTWARD LLC, priority 2020, dated 2026).

The nature of data set [1]: Preservation of quercetin-containing insulin hexameric complexes by small phenolic compounds. The format is physicochemical. To be noted: as small phenolic compound.
The target of another data set is insulin (Homo sapiens, UniProt P01308). To be noted: does not require zinc ions; read-out: dissociation constant Kd of dimerization; cited from earlier work.
insulin, sequence (P01308 25-54 limits assumed): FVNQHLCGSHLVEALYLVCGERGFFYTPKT
insulin, sequence (P01308 90-110 limits assumed): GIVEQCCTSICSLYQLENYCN

As to `O=C(O)c1ccc(O)cc1` [4-hydroxybenzoic acid], the “preservation of insulin hexameric complexes that contained quercetin” value in data set [1] is on record as “better preserve insulin hexameric complexes”.

For `O=C([O-])c1ccccc1.[Na+]` [sodium benzoate], in data set [1], the “preservation of insulin hexameric complexes that contained quercetin” value is on record as “better preserve insulin hexameric complexes”.

The Kd is a measure of binding affinity in units of concentration. Take “insulin: anabolic hormone of A-chain and B-chain linked by disulfide bonds”: in the data set with insulin, the dissociation constant Kd was around 10 µM.
